In patent US20050049228A1, “Antimicrobial photodynamic therapy compound and method of use” (CeramOptec Industries Inc., priority 2003, published 2005):

Experiments:
Assay in all cases: Photodynamic inactivation of bacterial cell suspensions (CFU count after 532 nm laser irradiation)
Assay type in all cases: cell-based
[1] = tested on: Escherichia coli DSM 8698; details: in presence of blood serum or plasma in the treatment suspensions, 10 μM, 100 μM, 1 mM, 30 min dark incubation, about 100 J/cm^2
Method: (§1) The organisms used in our studies were three members of the microflora of wounds: Staphylococcus aureus DSM1104 (A TCC 25923), Gram-positive; Escherichia coli DSM 8698, Gram-negative; Pseudomonas aeruginosa DSM 1117 (ATCC 27853), Gram-negative. All strains were grown aerobically overnight at 37° C. in Tryptic Soy Broth (Merck KGaA Darmstadt, Germany). Cells were harvested by centrifugation and resuspended in sterile phosphate-buffered saline (PBS) or sterile PBS supplemented with 10% sterile horse blood serum (Oxoid), 10% human plasma or 10% human blood (both freshly obtained from donors), respectively. The final OD (Optical Density) at 600 nm, 1 cm in all cases was 0.03.
(§2) Aliquots (190 μl) of the bacterial suspensions were placed into sterile black 96 well plates with clear bottom (Costar® 3603, Corning Inc., USA). 10 μl of three different Safranin O stock solutions were added to obtain the final photosensitizer concentrations of 10 μM, 100 μM and 1 mM, respectively. The plates were incubated for 30 minutes in the dark at room temperature.
(§3) After incubation the samples were exposed to light from a laser Ceralas G2 (biolitec AG, Germany), 532 nm, power set to 0.5 W, irradiation time of […] via a light fiber from the bottom of the plate. The fluence rate for these settings was about 1.2 W/cm^2 (measured with Optometer P-9710, Gigahertz-Optik GmbH, Puchheim, Germany). With the irradiation time, the resulting energy fluence was about 100 J/cm^2.
(§4) Control wells contained no Safranin O and were not exposed to laser light. The control samples for dark toxicity were only exposed to Safranin O (end concentration of 1 mM) without any illumination.
(§5) After illumination the samples were removed from the wells of the plate, diluted with Tryptic Soy Broth and plated by using spiral plater Eddy Jet (iul Instruments, Barcelona, Spain) on Tryptic Soy agar plates. The numbers of colony-forming units (CFU/ml) were enumerated after adequate incubation by using colony counter Countermat Flash (iul Instruments, Barcelona, Spain).

[2] = tested on: Pseudomonas aeruginosa DSM 1117 (ATCC 27853); details: in presence of blood serum or plasma in the treatment suspensions, 10 μM, 100 μM, 1 mM, 30 min dark incubation, about 100 J/cm^2
Method: as §1, §2, §3, §4, §5

[3] = tested on: Staphylococcus aureus DSM1104 (ATCC 25923); details: cell suspensions in PBS and in PBS+10% horse blood serum, PBS+10% human plasma, 10 μM, 100 μM, 1 mM, 30 min dark incubation, about 100 J/cm^2
Method: as §1, §2, §3, §4, §5

Compound: Cc1cc2nc3cc(C)c(N)cc3[n+](-c3ccccc3)c2cc1N.[Cl-] [Safranin O]
- killing of cell suspensions by PDT treatment [1]: sufficient killing
- killing of cell suspensions by PDT treatment [2]: sufficient killing
- killing effect by PDT treatment [3]: very good killing effect
